Laboratory results from article PMC4690855 (Viruses, 2015).
Values joined by “and” are separate entries in the source; they are usually repeats but may differ in a detail not shown here. Identical values can stand only once. “Also recorded” adds a separate entry of the source. Counter-ions that a name gives are not always drawn. Like-named read-outs stand apart in the source and are kept apart here.

Columns and labels:
[1] = molecular target: T1, double mutant (I54M, L90M) HIV-2 protease (Human immunodeficiency virus type 2 subtype A, UniProt P04584, I567M/L603M); assay: In vitro enzymatic (HPLC) inhibition assay, double mutant protease; assay type: biochemical
T1 sequence (P04584 514-612 I567M/L603M): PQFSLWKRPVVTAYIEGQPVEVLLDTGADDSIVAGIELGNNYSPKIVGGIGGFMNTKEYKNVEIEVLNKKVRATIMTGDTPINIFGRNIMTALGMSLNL

[2] = tested on: HIV-2 vectors harboring the double mutation (I54M, L90M); assay: Cell culture inhibition profiling, HIV-2 vector harboring the double mutation; assay type: cell-based; conditions: for IC50: transfected 293T cells, 3 days, RT activity in medium, triplicate, mean ± SD, read-out: IC50 Double Mutant (I54M, L90M) (cell culture); for Fold Increase (IC50, cell culture): IC50 double mutant versus wild-type; for Effect of I54M-L90M double mutation on IC50 in cell culture, in words: double mutant versus wild-type vector
[3] = molecular target: wild-type HIV-2 protease (Human immunodeficiency virus type 2 subtype A, UniProt P04584); assay: In vitro enzymatic (HPLC) inhibition assay, wild-type protease; assay type: biochemical
[4] = tested on: double mutant (I54M, L90M) HIV-2 protease; assay: In vitro enzymatic (HPLC) inhibition assay, double mutant protease; assay type: biochemical; conditions: for Fold Increase (Ki): Ki double mutant versus wild-type
[5] = tested on: wild-type HIV-2 vectors; assay: Cell culture inhibition profiling, wild-type HIV-2 vector; assay type: cell-based; conditions: transfected 293T cells, 3 days, RT activity in medium, triplicate, mean ± SD
[6] = Human immunodeficiency virus 2, HEK-293T, 72 h
[7] = HPLC, oligopeptide substrate, pH 5.6, 37 °C 1 h, triplicate, mean ± SD, read-out: IC50 Wild-Type
[8] = calculated from IC50 by Ki = (IC50 − E/2)/(S/Km + 1), mean ± SD, read-out: Ki Wild-Type

Chain of wild-type HIV-2 protease (P04584 514-612 limits assumed): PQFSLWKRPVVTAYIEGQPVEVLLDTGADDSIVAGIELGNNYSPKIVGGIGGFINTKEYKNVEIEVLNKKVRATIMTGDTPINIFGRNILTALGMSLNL

Structure (SMILES)	IC50 [1]	IC50 [2, 6]	Fold Increase (Ki) [4]	Fold Increase (IC50, cell culture) [2]	Effect of I54M-L90M double mutation on IC50 in cell culture, in words [2]	IC50 [3, 7]	Ki [3, 8]	further results
CC(C)CN(C[C@@H](O)[C@H](Cc1ccccc1)NC(=O)O[C@H]1CCOC1)S(=O)(=O)c1ccc(N)cc1 [Amprenavir]	152 ± 9 nM	> 100000 nM						
COC(=O)N[C@H](C(=O)N[C@@H](Cc1ccccc1)[C@@H](O)CN(Cc1ccc(-c2ccccn2)cc1)NC(=O)[C@@H](NC(=O)OC)C(C)(C)C)C(C)(C)C.O=S(=O)(O)O [Atazanavir sulfate, atazanavir sulfate]			more than 10 fold	4.8 fold	significant IC50 increase			Ki ([3]; wild-type protease, read-out: Ki Wild-Type (as printed in text in μM)): 0.09 ± 0.03 nM; IC50 [5]: 5900 ± 500 nM; IC50 [2]: 28600 ± 350 nM
COC(=O)N[C@H](C(=O)N[C@@H](Cc1ccccc1)[C@@H](O)CN(Cc1ccc(-c2ccccn2)cc1)NC(=O)[C@@H](NC(=O)OC)C(C)(C)C)C(C)(C)C [Atazanavir]	10.9 ± 0.2 nM		16.6 fold			3.34 ± 1 nM	0.09 ± 0.03 nM	
CC(C)CN(C[C@@H](O)[C@H](Cc1ccccc1)NC(=O)O[C@H]1CO[C@H]2OCC[C@H]21)S(=O)(=O)c1ccc(N)cc1 [Darunavir]	8.14 ± 1.3 nM	18700 ± 1600 nM	22.2 fold	44.5 fold				IC50 [3]: 1.76 ± 0.1 nM; Ki ([3]; Ki Wild-Type, calculated from IC50 by Ki = (IC50 − E/2)/(S/Km + 1), mean ± SD): 0.05 ± 0.005 nM; Fold Increase (Ki) ([4]; listed as darunavir): > 20 fold; Fold Increase (IC50, cell culture) ([2]; listed as darunavir): > 40 fold
CC(C)(C)NC(=O)[C@@H]1CN(Cc2cccnc2)CCN1C[C@@H](O)C[C@@H](Cc1ccccc1)C(=O)N[C@H]1c2ccccc2C[C@H]1O [Indinavir sulfate, indinavir sulfate]		16500 ± 2100 nM	more than 10 fold	11.7 fold			0.03 nM	Fold Increase (IC50, cell culture) ([2]; listed as indinavir sulfate): > 10 fold
CC(C)(C)NC(=O)[C@@H]1CN(Cc2cccnc2)CCN1C[C@@H](O)C[C@@H](Cc1ccccc1)C(=O)N[C@H]1c2ccccc2C[C@H]1O [Indinavir]	2.6 ± 1.4 nM		12 fold			1.3 ± 0.5 nM		
Cc1cccc(C)c1OCC(=O)N[C@@H](Cc1ccccc1)[C@@H](O)C[C@H](Cc1ccccc1)NC(=O)[C@H](C(C)C)N1CCCNC1=O [Lopinavir]	2.32 ± 0.1 nM	3100 ± 1100 nM	10.6 fold	20.6 fold		1.18 ± 0.1 nM	0.03 ± 0.001 nM	Fold Increase (Ki) ([4]; listed as lopinavir): more than 10 fold; Fold Increase (IC50, cell culture) ([2]; listed as lopinavir): > 20 fold
Cc1c(O)cccc1C(=O)N[C@@H](CSc1ccccc1)[C@H](O)CN1C[C@H]2CCCC[C@H]2C[C@H]1C(=O)NC(C)(C)C [Nelfinavir]	190 ± 14.5 nM	5100 ± 1700 nM	26 fold	1.8 fold	significant IC50 increase	38 ± 10 nM	1 nM and 1.01 nM	Fold Increase (Ki) ([4]; listed as nelfinavir): > 20 fold
CC(C)c1nc(CN(C)C(=O)N[C@H](C(=O)N[C@@H](Cc2ccccc2)C[C@H](O)[C@H](Cc2ccccc2)NC(=O)OCc2cncs2)C(C)C)cs1 [Ritonavir]		14500 ± 300 nM						
CC(C)(C)NC(=O)[C@@H]1C[C@@H]2CCCC[C@@H]2CN1C[C@@H](O)[C@H](Cc1ccccc1)NC(=O)[C@H](CC(N)=O)NC(=O)c1ccc2ccccc2n1 [Saquinavir]	14.1 ± 1.7 nM	3500 ± 1200 nM	21.4 fold	2.7 fold	significant IC50 increase	3.42 ± 0.1 nM	0.09 ± 0.001 nM	Fold Increase (Ki) ([4]; listed as saquinavir): > 20 fold
CCC[C@@]1(CCc2ccccc2)CC(O)=C([C@H](CC)c2cccc(NS(=O)(=O)c3ccc(C(F)(F)F)cn3)c2)C(=O)O1 [Tipranavir]	4.8 ± 1.6 nM	5800 ± 1700 nM	0.5 fold	1.5 fold	did not have an effect	50 ± 2 nM	1.3 nM and 1.31 nM	Effect of I54M, L90M double mutation on inhibitor efficacy (enzymatic), in words ([4]; double mutant versus wild-type protease): remained indifferent to the mutations; also recorded: did not observe a significant increase in Ki
